# Results: patent US20140228302A1, “COMPOUNDS, COMPOSITIONS AND METHODS FOR TREATING OR PREVENTING HYPOXIC OR ISCHEMIC INJURY” (FRED HUTCHINSON CANCER RESEARCH CENTER, priority 2010, published 2014)
# Entries after “also recorded” stand apart in the source; their conditions may differ. Where two headings read alike, the source gives them in different places.
# What was measured:
# [1] = Comparative solubility data (Table 1); format: physicochemical
# Description: (§1) This allows formulation in aqueous solution at high concentration, which is important for preparing parenteral dosage forms.
# [2] = Comparative vehicle data (Table 2); format: physicochemical
# Description: as §1
# mouse = details: cited from earlier work
# dog = details: cited from earlier work
# mammals = details: many mammals; cited from earlier work
# rat = details: cited from earlier work
# [3] = Generation of biologically available sulfide in whole rat blood and inhibition by NAEM; format: in vitro ADME
# Procedure: The chemical nature of biologically available sulfide in blood was probed with the thiol-reactive reagent N-aminoethyl-maleimide (NAEM) which binds to free thiols and perthiols on proteins and blocks them from participating further in thiol-mediated chemical reactions. Biologically available sulfide was generated in blood by adding 1.3 mM bis-N-acetyl-cystine-trisulfide to 2 mL of whole rat blood. Biologically available sulfide was measured by derivatization with mono-bromo-bimane and levels of bis-N-acetyl-cystine-trisulfide in blood were followed by LC/MS/MS.
# [4] = Pharmacokinetics of biologically available blood sulfide and plasma thiosulfate after intravenous administration; format: in vivo, Sprague Dawley rats; details: rat, IV bolus 16 or 32 mg/kg
# Procedure: Pharmacokinetic experiments were conducted with groups of two to four animals consisting of 9-10 week old, male Sprague Dawley rats, 276-300 grams (Charles River Laboratories, Wilmington, Mass.) with a jugular vein catheter and a femoral vein catheter. Animals were allowed to acclimate in a temperature and humidity controlled environment for 1-3 days prior to the commencement of experimental procedures. Food and water were provided ad libitum.
# A baseline blood sample (˜0.4 mL) was collected from each rat through the jugular vein cannula into a heparin-coated syringe (1 mL volume) fitted with a 23G Luer stub adapter. After sampling, the blood volume was replenished by slowly injecting 0.4 mL of a solution of 50 u/mL heparin in saline through the jugular vein cannula.
# [5] = Free sulfide in blood measured with sulfide-specific electrode in vena cava; format: in vivo, CD rats; details: rat, 20 mg/kg IV over 1 min, monitored 30 min
# Description: Male CD rats (350-450 g, Charles River Laboratories) were anesthetized by IV pentobarbital injection and the right jugular vein carefully exposed and dissected away from the surrounding tissue. An amperometric hydrogen sulfide sensor (World Precision Instruments, Sarasota, Fla., Cat. #ISO-H2S-2) was inserted into the jugular and advanced into the vena cava. Sensor current was monitored using a Powerlab 8/30 (ADInstruments, Colorado Springs, Colo.). Once a stable baseline current was attained, the animals received either vehicle (pH matched saline) or bis-N-acetyl-cystine-trisulfide (20 mg/kg) administered over 1 min via a left femoral vein catheter, and sensor current was monitored over 30 min. Changes in current were calibrated against an IK-1001 standard curve generated with the sensor in deoxygenated 50 mM HEPES, 150 mM NaCl, 1 mM DTPA at 37° C. and pH 7.4.
# [6] = Maximum tolerated dose, intravenous injection; details: mouse, in vivo; mice, intravenous injections
# Description: The absence of free sulfide is reflected in the low toxicity of the sulfide-releasing compounds.
# [7] = Stability of the dosing solution; format: physicochemical; details: 30 mg/mL dosing solution
# Procedure: In one more exemplary embodiment of the methods of making the pharmaceutical compositions of the invention, a dosing solution of bis-N-acetyl-cystine-trisulfide at 30 mg/mL is prepared by weighing the desired amount of solid bis-N-acetyl-cystine-trisulfide into a clear glass vial and chilling the vial to −20° C. The solvent is prepared by chilling a suitable amount of a mixture of 1 volumes of 0.5N NaOH in saline and 2 volumes of above vehicle solution to between 0° C. and 4° C. One mL of this solvent is added to the vial per 30 mg of bis-N-acetyl-cystine-trisulfide contained and the resulting suspension mixed immediately until the solid is fully dissolved. This dosing solution of bis-N-acetyl-cystine-trisulfide is stable for at least 1.5 hours at room temperature and for at least 24 hours when frozen at −20° C. The dosing solution is warmed to room temperature prior to intravenous injection.
# Method: Vehicle solution was prepared by mixing 1 volume of solution B, 4 volumes of solution A, and 36 volumes of saline. The pH of the resulting vehicle solution is about 6. To prepare a bis-N-acetyl-cysteine-trisulfide dosing solution at a concentration of 30 mg/ml and about pH 6, the appropriate amount of bis-N-acetyl-cystine-trisulfide was weighed into a clear glass vial and cooled to −20° C. Solutions B and A were mixed at a 1:2 volume ratio, vortexed, and cooled to 4° C. on ice. […]
# [8] = system: livers of mice, injury by dGal/LPS; assay: Protection from endotoxin (dGal/LPS)-induced liver damage; format: in vivo, C57BL/6 mice
# Procedure: Male C57BL/6 mice, (22 to 24 g, Charles River Laboratories) were acclimated in a temperature and humidity controlled environment for 1-3 days prior to commencement of the experimental procedures. All cages were placed on water heating pads set at 30° C. Liver injury was caused by injecting mice intraperitoneally with 800 mg/kg d-Galactosamine (dGal), followed 30 min later by 100 μg/kg lipopolysaccharide (LPS) (FIG. 4) or with 1000 mg/kg dGal, followed 30 min later by 120 μg/kg LPS (FIG. 5). Bis-N-acetyl-cystine-trisulfide at 20 mg/kg (FIG. 4) or 40 and 60 mg/kg (FIG. 5), or vehicle were injected intraperitoneally 30 min later. Blood was collected by cardiac puncture under isoflurane anesthesia five hours after LPS injection. Serum was prepared and markers of liver injury, alanine aminotransferase (ALT) and aspartate aminotransferase (AST) measured.
# [9] = system: livers of mice, ischemia/reperfusion (I/R) injury; assay: Protection from ischemia/reperfusion-induced liver damage; format: in vivo, C57BL/6 mice; details: last 5 min of 45 min occlusion, ALT five hours after reperfusion
# Procedure: C57BL/6 mice were anesthetized with a ketamine/xylazine combination given via intraperitoneal injection. A midline laparotomy was performed to expose the viscera and the stomach and intestines were moved laterally to allow for unimpeded visualization of the liver. A micoaneurysm clip was applied to the hepatic artery and portal vein to create a partial liver ischemia encompassing the medial and left lateral lobes (approximately 70% of the liver). […] The aneurysm clips were removed at 45 minutes to restore hepatic blood flow which was confirmed visually. The abdominal incision was closed using wound clips and animals were recovered in a warmed chamber with 100% oxygen. Five hours after reperfusion, blood was collected by cardiac puncture to measure serum alanine aminotransferase (ALT).
# [10] = 17% HPBCD, aqueous with cosolvent or surfactant or cyclodextrin, read-out: Solubility 17% HPBCD
# [11] = 20% PEG400, aqueous with cosolvent or surfactant or cyclodextrin, read-out: Solubility 20% PEG400
# [12] = water, read-out: Solubility Water
# [13] = rat blood pretreated with 20 mM NAEM for 30 min
smiles,measurement,setting,value
OCCSSSSCc1ccccc1,solubility,[1]; [10],> 6000 µg/mL
same,solubility,[1]; [11],110 µg/mL
same,solubility,[1]; [12],37 µg/mL
c1ccc(CCSSSCc2cccnc2)cc1,solubility,[1]; [11],310 µg/mL
same,solubility,[1]; [12],220 µg/mL
COC(=O)[C@H](CSSSCc1ccccc1)NC(C)=O,solubility,[1]; [11],240 µg/mL
same,solubility,[1]; [12],100 µg/mL
OCC(O)CSSSSCc1ccccc1 (stereo not shown),solubility,[1]; [10],6600 µg/mL
same,solubility,[1]; [11],230 µg/mL
same,solubility,[1]; [12],150 µg/mL
O=C(O)CCSSSCCC(=O)O,solubility,"[1]; aqueous with cosolvent or surfactant or cyclodextrin, 45% HPBCD (stated in the cell of the 17% HPBCD column), read-out: Solubility 45% HPBCD",> 20000 µg/mL
same,Solubility Water,[1]; water,poor
CC(=O)N[C@@H](CSSSCCc1ccccc1)C(=O)O,solubility,[1]; [10],18000 µg/mL
same,Solubility Water,[1]; water,poor
N[C@@H](CSSSC[C@H](N)C(=O)O)C(=O)O,Solubility in words,"[1]; water, 90% PEG400, 45% HPBCD, 45% Captisol, 2% Tween 80, 25% cremophor","Not soluble in water, 90% PEG400, 45% HPBCD, 45% Captisol, 2% Tween 80, 25% cremophor"
C=CCSSCC=C [Di-allyl di-sulfide],Preferred Vehicle,[2],40% HPBCD/0.1% citric acid
CC(=O)N[C@@H](CS)C(=O)O [N-acetyl-cysteine],LD50 IV,mouse,"3,800 mg/kg"
same,LD50 IV,dog,700 mg/kg
same,intravenous LD50,mammals,≥ 300 mg/kg
same,LD50 IV,rat,"1,140 mg/kg"
"NCCN1C(=O)C=CC1=O [NAEM, N-aminoethyl-maleimide]",Time until consumed in blood,"[3]; 20 mM NAEM, preincubation with rat blood",≤ 1 min
same,Effect on consumption of bis-N-acetyl-cystine-trisulfide,[3]; [13],reduced consumption
same,Effect on production of biologically available sulfide,[3]; [13],almost completely blocked
same,Effect on production of biologically available sulfide,"[3]; rat blood pretreated with 20 mM NAEM for 30 min, listed as N-aminoethyl-maleimide (NAEM)",reduces the generation of biologically available sulfide
"CC(=O)N[C@@H](CSSSC[C@H](NC(C)=O)C(=O)O)C(=O)O [bis-N-acetyl-cystine-trisulfide, (R,R′)-3,3′-trithiobis-2-acetamidopropanoic acid]",Water solubility compared to other polysulfides,[1]; water,unexpectedly high water solubility
same,Plasma thiosulfate,[4]; ion chromatography,paralleled blood levels of biologically available sulfide; also recorded: elevation of plasma thiosulfate
same,Biologically available sulfide in blood,[4]; mono-bromo-bimane derivatization,dose-dependent elevation
same,Preferred Vehicle,[2],aqueous
same,Free sulfide in blood,[5],No free sulfide was detectable; also recorded: does not lead to any measurable increase
same,MTD,[6],~500 mg/kg
same,Stability of dosing solution at room temperature,"[7]; about pH 6, room temperature",at least 1.5 hours
same,Stability of dosing solution frozen,[7]; frozen at −20° C.,at least 24 hours
same,Liver injury (serum ALT and AST),"[8]; 20 mg/kg IP bolus 30 min after LPS, 800 mg/kg dGal, 100 μg/kg LPS, vs vehicle",reduced liver injury
same,"Endotoxin-induced liver injury (ALT, AST)","[8]; 20, 40 and 60 mg/kg IP, blood five hours after LPS (FIGS. 4 and 5)",protected from endotoxin-induced liver injury
same,Liver injury (serum ALT),"[8]; 40 and 60 mg/kg IP bolus 30 min after LPS, 1000 mg/kg dGal, 120 μg/kg LPS, vs vehicle",reduced liver injury
same,Time until consumed in blood,"[3]; 1.3 mM in 2 mL whole rat blood, LC/MS/MS",≤ 5 min
same,Generation of biologically available sulfide in blood,"[3]; 1.3 mM in whole rat blood, mono-bromo-bimane derivatization",generating biologically available sulfide
same,Liver ischemia/reperfusion injury (ALT),"[9]; intravenous bolus 5, 20 or 60 mg/kg",protection of the livers; also recorded: protected the liver from ischemia/reperfusion injury
"CS(=O)(=O)N[C@@H](CSSSC[C@H](NS(C)(=O)=O)C(=O)O)C(=O)O [bis-N-methylsulfonyl-cystine-trisulfide, (R,R′)-3,3′-trithiobis-2-(methylsulfonylamido)propanoic acid]",Water solubility compared to other polysulfides,[1]; water,unexpectedly high water solubility
same,Liver ischemia/reperfusion injury (ALT),"[9]; intravenous bolus 2, 5 or 20 mg/kg",protected the liver from ischemia/reperfusion injury
same,Liver ischemia/reperfusion injury (ALT),"[9]; intravenous bolus 2, 5 or 20 mg/kg, listed as bis-N-methylsulfonamide-cystine-trisulfide",protection of the livers
CC(=O)N[C@@H](CSSSC[C@H](NC(C)=O)C(=O)O)C(=O)O [drawing 49],solubility,[1]; [12],> 40000 µg/mL
CS(=O)(=O)N[C@@H](CSSSC[C@H](NS(C)(=O)=O)C(=O)O)C(=O)O [drawing 50],solubility,[1]; [12],> 80000 µg/mL
